In patent US20040235855A1, “Phospholipase C inhibitors for use in treating inflammatory disorders” (priority 2003, published 2004) one finds IC50 data, which are given here for 25 molecules.

The target in this assay is T1, human PLC-β2 (Homo sapiens, UniProt Q00722).
T1 construct: made in house; host or cells: Sf9 cells (Spodoptera frugiperda), recombinant baculovirus
Briefly: PLC assay using FlashPlates (96-well, immobilized [3H]PIP2 substrate). It counts as biochemical. The following applies: purified recombinant human PLC-β2 or cytosolic human PLC-β2; hydrolysis of [3H]PIP2. From the text:
The hydrolysis of phosphatidylinositol-4,5-bisphosphate (PIP2) by a specific phospholipase C-β2 (PLC-β2) produces two intracellular messengers, diacylglycerol (DAG) and inositol 1,4,5-trisphosphate (IP3), which mediate the activation of protein kinase C and intracellular Ca^2+ release. A conventional organic solvent extraction method is widely used for PLC assays to isolate IP3 from the substrate PIP2. The conventional PLC-β2 assay, however is terminated by addition of acidified organic solvents and subsequent extraction and phase separation. […] Accordingly, a preferred method to test the compounds of the present invention, was developed utilizing a 96-well plate assay for PLC-β2 using immobilized radiolabeled substrate to quantitatively measure the reduction in the substrate level without a need for organic solvent extraction. The automated PLC-β2 assay described herein provides a convenient method for quantitative measurement of phospholipase C activities in a high throughput fashion. Ninety-six well Phospholipid FlashPlates were coated with 0.2 mL of 50 mM Tris/HCl (pH 7.4), 0.01% Ac-BSA and 50,000 cpm of […] (phosphatidylinositol-4,5-bisphosphate) at 4° C. for 72 h. The wells were aspirated and washed twice with PBS. The reactions were conducted directly in the wells in PLC reaction buffer containing 50 mM Tris/HCl (pH 7.2), 2.75 mM EDTA (pH 7.3), 80 mM KCl, 10 mM LiCl, 0.04% DOC and 2 mM CaCl2 in the absence or presence of the purified recombinant human PLC-β2 (prepared as described hereafter) or cytosolic human PLC-β2 from […]. Reduction of radioactivity was monitored by a Packard TopCount instrument (Packard Instrument Company, Conn., USA). […] The cells were grown in Grace's media supplemented with 10% (v/v) fetal bovine serum, 3.3 g/l yeastolate, 3.3 g/l lactalbumin hydrosylate, glutamine (6.4 mM final), 50 μg/ml gentamicin, and 50 μg/ml kanamycin. Suspension of Sf9 cells (1.0×10^6 cells/ml) were infected with 5 pfu/cell of recombinant baculovirus encoding PLC-β2 and incubated at 27° C. for 72 h. The cells were collected by centrifugation (500×g, 7 min, 4° C.) and disrupted by hypotonic lysis buffer containing 20 mM Tris/HCl, pH 7.4, 5 mM MgCl2, 2 mM EGTA, 200 μM PMSF, 200 μM benzamidine and 1 μM pepstatin A. The lysate was sonicated on ice and the nuclei and unbroken cells removed by centrifigation (500×g, 5 min, 4C.). The supernatant was recovered and clarified by centrifugation (34,000 rpm, 60 min, 4C.). The supernatant was used as a crude cytosolic fraction (Paterson, A., Boyer, J. L., Watts, V. J., Morris, A. J., Price, […]. (1995) Concentration of enzyme-dependent activation of PLC β1 and PLC β2 by Gα11 and βγ subunits. Cellular Signalling 7, 709-720). Crude cytosol prepared from Sf9 cells expressing PLC-β2 was purified initially by chromatography on a 10 ml column of Q-Sepharose FF, equilibrated in buffer A (25 mM HEPES, pH 7.2,2 mM DTT, 2 mM EDTA, 2 mM EGTA, 200 μM PMSF, 200 μM benzamidine, 1 μM pepstatin A containing 10 mM NaCl). The column was washed with 20 ml of equilibration buffer and eluted with a 200-ml gradient of 110-410 mM NaCl in buffer A. The fractions containing PLC activity were pooled and diluted with buffer A. The diluted enzyme was applied to a 4 ml column of heparin-SepharoseCL-6B equilibrated in buffer A and the column washed with 70 ml of buffer A. The column was eluted with 80 ml of gradient of 0-1.0 M NaCl in buffer A, the column eluate collected in 3 ml fractions. […]

T1 sequence (Q00722 whole entry): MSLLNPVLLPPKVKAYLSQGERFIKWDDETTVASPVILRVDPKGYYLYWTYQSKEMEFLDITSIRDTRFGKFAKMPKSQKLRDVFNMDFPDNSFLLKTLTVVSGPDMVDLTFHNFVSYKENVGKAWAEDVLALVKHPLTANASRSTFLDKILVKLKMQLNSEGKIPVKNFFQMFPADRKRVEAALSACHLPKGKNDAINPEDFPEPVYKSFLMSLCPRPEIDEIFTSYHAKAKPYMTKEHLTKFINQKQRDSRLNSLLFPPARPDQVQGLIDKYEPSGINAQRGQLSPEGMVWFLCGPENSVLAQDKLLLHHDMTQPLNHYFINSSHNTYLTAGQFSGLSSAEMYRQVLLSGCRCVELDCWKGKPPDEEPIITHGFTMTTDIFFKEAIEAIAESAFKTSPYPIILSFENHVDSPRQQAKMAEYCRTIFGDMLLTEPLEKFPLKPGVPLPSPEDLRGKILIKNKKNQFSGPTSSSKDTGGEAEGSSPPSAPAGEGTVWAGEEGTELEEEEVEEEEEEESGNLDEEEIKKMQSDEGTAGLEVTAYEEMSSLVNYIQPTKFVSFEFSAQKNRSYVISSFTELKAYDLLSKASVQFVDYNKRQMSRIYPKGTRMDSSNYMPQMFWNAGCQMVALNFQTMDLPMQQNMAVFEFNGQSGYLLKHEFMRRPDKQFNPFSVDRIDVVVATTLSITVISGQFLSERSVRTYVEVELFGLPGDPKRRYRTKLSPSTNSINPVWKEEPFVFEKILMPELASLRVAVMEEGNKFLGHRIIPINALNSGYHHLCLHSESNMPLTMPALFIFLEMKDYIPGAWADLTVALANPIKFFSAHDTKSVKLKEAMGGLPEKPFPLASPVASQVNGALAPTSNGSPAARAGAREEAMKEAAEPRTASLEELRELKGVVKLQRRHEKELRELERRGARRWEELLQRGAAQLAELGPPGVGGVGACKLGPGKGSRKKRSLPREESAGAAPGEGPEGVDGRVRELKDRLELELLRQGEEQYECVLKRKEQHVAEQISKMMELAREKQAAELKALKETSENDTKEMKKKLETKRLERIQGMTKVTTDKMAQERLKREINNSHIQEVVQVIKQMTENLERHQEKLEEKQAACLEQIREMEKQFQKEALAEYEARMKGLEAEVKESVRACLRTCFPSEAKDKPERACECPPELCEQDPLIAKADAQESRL

Take `CN1CCN(C(=O)c2ccc(N3CCN(C(c4ccccc4)c4ccccc4)CC3)c(NC(=O)NC3CCCCC3)c2)CC1` [Cpd 28, N-cyclohexyl-N′-[2-[4-(diphenylmethyl)-1-piperazinyl]-5-[(4-methyl-1-piperazinyl)carbonyl]-phenyl]urea]: the IC50 was 5.6 µM.
As for `CN(C)CCNC(=O)c1ccc(N2CCN(C(c3ccccc3)c3ccccc3)CC2)c(NC(=O)Nc2ccccc2)c1` [Cpd 29, N-[2-(dimethylamino)ethyl]-4-[4-(diphenylmethyl)-1-piperazinyl]-3-[[(phenylamino)carbonyl]amino]-benzamide], the figure is 3.3 µM.
The result for `CN(C)CCNC(=O)c1ccc(N2CCN(C(c3ccccc3)c3ccccc3)CC2)c(NC(=O)NC2CCCCC2)c1` [Cpd 30, 3-[[(cyclohexylamino)carbonyl]amino]-N-[2-(dimethylamino)ethyl]-4-[4-(diphenylmethyl)-1-piperazinyl]-benzamide] reads 9.8 µM; that for `CN1CCCN(C(=O)c2ccc(N3CCN(C(c4ccccc4)c4ccccc4)CC3)c(NC(=O)NC3CCCCC3)c2)CC1` [Cpd 31, N-cyclohexyl-N′-[2-[4-(diphenylmethyl)-1-piperazinyl]-5-[(hexahydro-4-methyl-1H-1,4-diazepin-1-yl)carbonyl]phenyl]-urea], 6.6 µM.
The result for `CC(C)C[C@H](NC(=O)c1ccc(N2CCN(C(c3ccccc3)c3ccccc3)CC2)c(NC(=O)Nc2ccccc2)c1)C(=O)O` [Cpd 32, N-[4-[4-(diphenylmethyl)-1-piperazinyl]-3-[[(phenylamino)carbonyl]amino]benzoyl]-L-leucine] reads 3.9 µM; that for `O=C(NCc1ccccc1)Nc1cc(C(=O)N2CCNCC2)ccc1N1CCN(C(c2ccccc2)c2ccccc2)CC1` [Cpd 39, N-[2-[4-(diphenylmethyl)-1-piperazinyl]-5-(1-piperazinylcarbonyl)phenyl]-N′-(phenylmethyl)urea], 4.2 µM.
Regarding `Cc1ccc(NC(=O)Nc2cc(C(=O)N3CCNCC3)ccc2N2CCN(C(c3ccccc3)c3ccccc3)CC2)c(C)c1` [Cpd 41, N-(2,4-dimethylphenyl)-N′-[2-[4-(diphenylmethyl)-1-piperazinyl]-5-(1-piperazinylcarbonyl)phenyl]-urea], the IC50 was found to be 1.6 µM.
As for `Cc1cc(C)cc(NC(=O)Nc2cc(C(=O)N3CCNCC3)ccc2N2CCN(C(c3ccccc3)c3ccccc3)CC2)c1` [Cpd 42, N-(3,5-dimethylphenyl)-N′-[2-[4-(diphenylmethyl)-1-piperazinyl]-5-(1-piperazinylcarbonyl)phenyl]-urea], the figure is 5.6 µM; as for `COc1ccc(NC(=O)Nc2cc(C(=O)N3CCNCC3)ccc2N2CCN(C(c3ccccc3)c3ccccc3)CC2)cc1` [Cpd 43, N-[2-[4-(diphenylmethyl)-1-piperazinyl]-5-(1-piperazinylcarbonyl)phenyl]-N′-(4-methoxyphenyl)urea], 5.7 µM; as for `O=C(Nc1ccccc1)Nc1cc(C(=O)N2CCNCC2)ccc1N1CCN(C2c3ccccc3-c3ccccc32)CC1` [Cpd 44, N-[2-[4-(9H-fluoren-9-yl)-1-piperazinyl]-5-(1-piperazinylcarbonyl)phenyl]-N′-phenylurea], 2.3 µM.
The result for `O=C(Nc1cc(C(=O)N2CCNCC2)ccc1N1CCN(C(c2ccccc2)c2ccc(Cl)cc2)CC1)NC1CCCCC1` (stereo not shown) [Cpd 45, N-[2-[4-[(4-chlorophenyl)phenylmethyl]-1-piperazinyl]-5-(1-piperazinylcarbonyl)phenyl]-N′-cyclohexyl-urea] reads 2.2 µM.
Take `O=C(Nc1ccccc1)Nc1cc(C(=O)N2CCNCC2)ccc1N1CCN(C(c2ccc(F)cc2)c2ccc(F)cc2)CC1` [Cpd 46, N-[2-[4-[bis(4-fluorophenyl)methyl]-1-piperazinyl]-5-(1-piperazinylcarbonyl)phenyl]-N′-phenylurea]: the IC50 is 1.7 µM.
The result for `O=C(Nc1cc(C(=O)N2CCNCC2)ccc1N1CCN(C(c2ccc(F)cc2)c2ccc(F)cc2)CC1)NC1CCCCC1` [Cpd 47, N-[2-[4-[bis(4-fluorophenyl)methyl]-1-piperazinyl]-5-(1-piperazinylcarbonyl)phenyl]-N′-cyclohexylurea] reads 4.2 µM; that for `CC(c1ccccc1)N1CCN(c2ccc(C(=O)N3CCNCC3)cc2NC(=O)Nc2ccccc2)CC1` (stereo not shown) [Cpd 48, N-phenyl-N′-[2-[4-(1-phenylethyl)-1-piperazinyl]-5-(1-piperazinylcarbonyl)phenyl]-urea], above 25 µM.
As for `COc1ccccc1N1CCN(c2ccc(C(=O)N3CCNCC3)cc2NC(=O)Nc2ccccc2)CC1` [Cpd 49, N-[2-[4-(2-methoxyphenyl)-1-piperazinyl]-5-(1-piperazinylcarbonyl)phenyl]-N′-phenylurea], the figure is above 25 µM; as for `O=C(Nc1ccccc1)Nc1cc(C(=O)N2CCNCC2)ccc1N1CCN(Cc2ccccc2)CC1` [Cpd 50, N-phenyl-N′-[2-[4-(phenylmethyl)-1-piperazinyl]-5-(1-piperazinylcarbonyl)phenyl]-urea], above 25 µM; as for `O=C(Nc1ccccc1)Nc1cc(C(=O)N2CCNCC2)ccc1N1CCN(C2CCCCC2)CC1` [Cpd 51, N-[2-(4-cyclohexyl-1-piperazinyl)-5-(1-piperazinylcarbonyl)phenyl]-N′-phenylurea], above 25 µM.
As for `O=C(Nc1cc(C(=O)N2CCNCC2)ccc1N1CCN(Cc2ccccc2)CC1)NC1CCCCC1` [Cpd 52, N-cyclohexyl-N′-[2-[4-(phenylmethyl)-1-piperazinyl]-5-(1-piperazinylcarbonyl)phenyl]-urea], the figure is above 25 µM; as for `CC(c1ccccc1)N1CCN(c2ccc(C(=O)N3CCNCC3)cc2NC(=O)NC2CCCCC2)CC1` (stereo not shown) [Cpd 53, N-cyclohexyl-N′-[2-[4-(1-phenylethyl)-1-piperazinyl]-5-(1-piperazinylcarbonyl)phenyl]-urea], above 25 µM.
For `O=C(Nc1cc(C(=O)N2CCNCC2)ccc1N1CCN(C2CCCCC2)CC1)NC1CCCCC1` [Cpd 54, N-cyclohexyl-N′-[2-(4-cyclohexyl-1-piperazinyl)-5-(1-piperazinylcarbonyl)phenyl]-urea], the IC50 is above 25 µM.
As for `COc1ccccc1N1CCN(c2ccc(C(=O)N3CCNCC3)cc2NC(=O)NC2CCCCC2)CC1` [Cpd 55, N-cyclohexyl-N′-[2-[4-(2-methoxyphenyl)-1-piperazinyl]-5-(1-piperazinylcarbonyl)phenyl]-urea], the figure is above 25 µM; as for `CCCCNC(=O)Nc1cc(C(=O)N2CCNCC2)ccc1N1CCN(C(c2ccccc2)c2ccccc2)CC1` [Cpd 56, N-butyl-N′-[2-[4-(diphenylmethyl)-1-piperazinyl]-5-(1-piperazinylcarbonyl)phenyl]-urea], above 25 µM; as for `O=C(Nc1ccccc1F)Nc1cc(C(=O)N2CCNCC2)ccc1N1CCN(C(c2ccccc2)c2ccccc2)CC1` [Cpd 57, N-[2-[4-(diphenylmethyl)-1-piperazinyl]-5-(1-piperazinylcarbonyl)phenyl]-N′-(2-fluorophenyl)urea], 2.5 µM.
Consider `CN(C)c1ccc(NC(=O)Nc2cc(C(=O)N3CCNCC3)ccc2N2CCN(C(c3ccccc3)c3ccccc3)CC2)cc1` [Cpd 58, N-[4-(dimethylamino)phenyl]-N′-[2-[4-(diphenylmethyl)-1-piperazinyl]-5-(1-piperazinylcarbonyl)phenyl]-urea], for which the IC50 came out at 7.8 µM.
For the molecule `COc1ccccc1NC(=O)Nc1cc(C(=O)N2CCNCC2)ccc1N1CCN(C(c2ccccc2)c2ccccc2)CC1` [Cpd 59, N-[2-[4-(diphenylmethyl)-1-piperazinyl]-5-(1-piperazinylcarbonyl)phenyl]-N′-(2-methoxyphenyl)-urea], the IC50 is 5.4 µM.
